Patent publication US9975906B2, “Tricyclic heterocycle derivatives having HIV replication inhibitory effect” (Shionogi & Co., Ltd., priority 2014, dated 2018)

Target: T1, CYP2C19 (Homo sapiens, UniProt P33261)
T1 construct: enzyme, pooled human hepatic microsome 0.2 mg protein/mL; from tissue
Assay: CYP Inhibition Assay (mephenytoin 4'-hydroxylation)
Assay type: in vitro ADME
Settings: pooled human hepatic microsome, 50 μmol/L S-mephenytoin, 15 minutes, 37° C.
Procedure: Using commercially available pooled human hepatic microsome, and employing, as markers, 7-ethoxyresorufin O-deethylation (CYP1A2), tolbutamide methyl-hydroxylation (CYP2C9), mephenytoin 4'-hydroxylation (CYP2C19), dextromethorphan O-demethylation (CYP2D6), and terfenadine hydroxylation (CYP3A4) as typical substrate metabolism reactions of human main five CYP enzyme forms (CYP1A2, 2C9, 2C19, 2D6, 3A4) an inhibitory degree of each metabolite production amount by a test compound was assessed. […] After the centrifugation at 3000 rpm for 15 minutes, resorufin (CYP1A2 metabolite) in the supernatant was quantified by a fluorescent multilabel counter and tolbutamide hydroxide (CYP2C9 metabolite), mephenytoin 4' hydroxide (CYP2C19 metabolite), dextrorphan (CYP2D6 metabolite), and terfenadine alcohol (CYP3A4 metabolite) were quantified by LC/MS/MS. A reaction system containing only DMSO which is a solvent for dissolving a drug was adopted as a control (100%), and the remaining activity (%) was calculated, then IC50 was calculated by reverse presumption with a logistic model using a concentration and an inhibition rate.

T1 sequence (P33261 whole entry): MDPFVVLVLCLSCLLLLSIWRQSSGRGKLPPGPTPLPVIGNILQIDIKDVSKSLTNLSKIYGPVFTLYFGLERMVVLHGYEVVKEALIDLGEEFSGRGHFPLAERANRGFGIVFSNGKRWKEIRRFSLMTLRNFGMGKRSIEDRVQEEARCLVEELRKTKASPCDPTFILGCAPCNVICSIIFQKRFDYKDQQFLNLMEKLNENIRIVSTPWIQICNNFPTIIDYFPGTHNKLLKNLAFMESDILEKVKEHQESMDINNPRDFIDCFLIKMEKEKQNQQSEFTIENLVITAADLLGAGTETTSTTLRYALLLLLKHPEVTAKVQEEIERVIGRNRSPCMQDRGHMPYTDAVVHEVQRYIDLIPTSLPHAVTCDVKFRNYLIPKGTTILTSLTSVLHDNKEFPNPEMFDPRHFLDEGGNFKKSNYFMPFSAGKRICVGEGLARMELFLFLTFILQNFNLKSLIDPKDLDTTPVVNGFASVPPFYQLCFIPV

- IC50: > 20 µM
Compound: Cc1ccc(-c2c([C@H](OC(C)(C)C)C(=O)O)c(C)c3c4c2cc(-c2ccnc(-c5ccc6c(cnn6C)c5)c2)n4CCN3CCN(C)C)cc1 [Compound I-034]
